Earlier results in US20230098686A1, “NERVE SPECIFIC FLUOROPHORE FORMULATIONS FOR DIRECT AND SYSTEMIC ADMINISTRATION” (OREGON HEALTH & SCIENCE UNIVERSITY, priority 2020, published 2023).

Tested on: nerve tissue
Conditions: previous studies

SMILES: CC/N=c1/cc2oc3cc(NCC)c(C)cc3nc-2cc1C [Oxazine 4]
- nerve specificity: high nerve-specificity
